Assays:
rat brain homogenate = experiment: Lipid Peroxidation Inhibition Test; format: biochemical, rat (SD-line male); conditions: 1 μM sample compound, pH 7.4, 1 hour at 37° C., TBA method
From the text: Lipid Peroxidation Inhibition Test
In an automatic oxidation system using a rat brain homogenate, whether a sample compound having a radical-eliminating effect can actually have a lipid peroxidation inhibitory activity or not is investigated and its effectiveness is comparatively studied.
With reference to method of Shimamoto et. al. (Clinical Study of Free Radical, vol. 1, pp. 91-95, 1987), the following method was used. An SD-line male rat (7-week-old) was bled to death with a physiological saline perfusion under pentobarbital anesthesia. Then, its hemisphaerium cerebri was taken out and, while being cooled with ice, a 19-fold amount of 20 mM phosphoric acid buffer (pH 7.4) was added thereto. The resulting mixture was homogenized. To this mixture, 1 μM of the sample compound was added. After the resulting mixture was incubated for 1 hour at 37° C., the amount of generated lipid peroxide was determined by TBA method. Namely, to 0.2 ml of the homogenate, 0.2 ml of 8.1% SDS, 1.5 ml of 20% acetic acid buffer (pH 3.5), and 1.5 ml of 0.8% TBA reagent were added. The resulting mixture was incubated for 1 hour at 95° C. and then rapidly cooled with ice. Subsequently, 1 ml of distilled water and 5 ml of n-butanol/pyridine mixed solution (15:1, v/v) were added thereto and the mixture was stirred. After the mixture was centrifuged, the butanol layer was collected therefrom and its absorbance (a) at 535 nm was measured as compared with a blank. Also, as a reference liquid, a 10 μM solution of 1,1,3,3-tetraethoxypropane (TEP) was added in place of the brain homogenate and its absorbance (A) was measured in a similar manner. In the blank, a phosphoric acid buffer was used in place of the brain homogenate. The peroxide concentration was calculated by the following equation and defined as the brain lipid peroxide amount: […]
peroxide concentration (nmol/g wet weight)=a/A×100
The sample compound was used as being dissolved in dimethylsulfoxide (DMSO). While the final concentration of DMSO was 2%, no influence upon the present system was observed.
The lipid peroxidation inhibitory rate of the sample compound at the concentration of 1 μM was calculated from the amount of increase in lipid peroxide in solvent-added group (M) and that in sample compound added group (m): […]
lipid peroxidation inhibitory rate (%)={1-(m/M)}×100

[1] = tested on: MCA infarction reperfusion model; experiment: Brain Edema Inhibition Test (MCA infarction reperfusion model); format: in vivo, rat (Fischer); conditions: dose was 100 mg/kg; i.p. 20 minutes before reperfusion; two-hour ischemia and two-hour reperfusion; brain moisture content
From the text: Brain Edema Inhibition Test
The brain edema inhibitory activity in vivo is confirmed. According to this test, it can be judged whether the peripherally administered sample compound can pass through the blood-brain barrier or not.
By using a 7 to 9-week-old Fischer rat (Charles River Japan Inc.), an MCA infarction reperfusion model was formed according to method of Koizumi et al. (Japanese Journal of Stroke, vol. 8, pp. 1-8, 1986). Namely, the rat was fixed face-up position under anesthesia with 2% halothane and then its neck portion was subjected to median incision so as to separate the right common carotid artery therefrom to the carotid artery branching portion while carefully keeping the vagus nerve. The outer carotid artery and inner carotid artery around the carotid artery branching portion were separated from their surrounding connecting tissues. Then, the common carotid artery and outer carotid artery were ligated with a silk string. Further, the inner carotid artery starting portion was surrounded by a silk string so as to be ready for ligation and fixation which would be effected after insertion of an embolus string. Then, the common carotid artery was incised and, from there, an embolus string was inserted toward the inner carotid artery by about 15 to 16 mm and then ligated and fixed to the inner carotid artery with the above mentioned silk string. As a result of the foregoing operation, the tip of the embolus string proceeded beyond the MCA branching portion so as to enter the anterior cerebral artery by about 1 to 2 mm and formed infarction at the MCA inlet by the body portion of the embolus string. After the embolus string blocking the MCA starting portion was left for a predetermined time, it was pulled out under halothane anesthesia to effect reperfusion. Here, in this model, since the right common carotid artery has been ligated, the blood flow is supposed to be restarted from the left inner carotid artery and vertebral-basilar by way of the anterior and posterior communicating arteries. This experiment effected two-hour ischemia and two-hour reperfusion.
Here, the embolus string was prepared in the following manner. Namely, a tip of a 4-0 surgical nylon string having a total length of 16 mm was held over an alcohol lamp so as to form a ball with a diameter of 0.2 to 0.3 mm and then a length of about 5 mm on the nearer side therefrom was coated with a dental impression material with reference to the size of the ball, thereby forming the embolus string.
The brain moisture content was measured by wet and dry weight method. […] Further, after being dried at 110° C. for 24 hours, their weight was measured again to yield dry weight. From thus obtained wet weight and dry weight, the brain moisture content was determined by the following equation: […]

[2] = tested on: middle cerebral artery (MCA) infarction model; experiment: Brain Infarction Inhibition Test (MCA infarction model); format: in vivo, rat (Crj:Fischer-344 line male); conditions: for Brain infarction inhibitory ratio: dose was 100 mg/kg, 2 hours ischemia, 2 hours reperfusion, i.p. 20 minutes before or i.v. simultaneously with reperfusion, * p < 0.05
Method: Brain Infarction Inhibition Test i) Meaning The brain infarction inhibitory activity in vivo is studied. According to this test, it can be judged whether the peripherally administered sample compound can pass through the blood-brain barrier or not. ii) Method For the experiment, 9 to 10-week-old Crj:Fischer-344 line male rats were used. Each of all the soluble sample compounds was dissolved in a physiological saline and then administered intravenously or intraperitoneally. Each of insoluble ones was suspended in a physiological saline containing 0.1% Tween 80 and administered intraperitoneally. Also, those dissolved in a physiological saline containing 0.5% Tween 80 were used for intravenous administration. The intraperitoneal administration was effected 20 minutes before reperfusion, whereas the intravenous administration was effected simultaneously with reperfusion. As a control, only the base was administered. The surgical operation was effected in a manner similar to method of Koizumi et al. (Japanese Journal of Stroke, vol. 8, pp. 1-8, 1986) so as to form a middle cerebral artery (MCA) infarction model. Namely, the rat was subjected to inhalation anesthesia with 4% halothane and then, while the anesthesia was maintained with 1% halothane, fixed on face-up position. The neck portion was subjected to median incision such that the common carotid artery and outer carotid artery around the right carotid artery branching portion were separated from their surrounding connecting tissues and then ligated with a silk string. Further, the inner carotid artery starting portion was surrounded by a silk string so as to be ready for ligation and fixation which would be effected after insertion of an embolus. Then, the common carotid artery was incised and, from there, an embolus having a length of about 16 mm, in which a 4-0 surgical nylon string had been coated with a dental impression material, was inserted toward the inner carotid artery and its end near the nylon string was ligated and fixed to the inner carotid artery with the above mentioned silk string. Also, during the surgical operation, the body temperature was maintained by a small animal body temperature control apparatus in order to prevent it from lowering upon the whole anesthesia processes. According to the foregoing operation, brain ischemia was effected for 2 hours and then the embolus was pulled out so as to effect reperfusion. The brain was taken out two hours after the reperfusion and then 4 pieces of crown-like separated strips were prepared by 2-mm intervals from the lambda level toward the downstream. These strips were immersed in 2% triphenyltetrazorium chloride (TTC) solution and incubated at 37° C., for 10 minutes. Thus dyed brain strips were immersed in a phosphate-buffered 8% formalin solution for 1 to 2 days and then photographed under a stereo-microscope ([…]). Thereafter, for each crown-like strip, the area of infarction region was measured by Planimeter ([…]) Judgment Standard The effects of the sample compound were represented by its individual inhibitory rate (%) which used the total area of the infarction regions, which had not been dyed with TTC in the 4 strips. The significance test was effected by student t-test. individual inhibitory rate(%)={1-(value in sample group/value in control group)}×100

[3] = Radical Eliminating Effect Test (DPPH); format: biochemical; conditions: 10 μM sample compound, 0.1 mM DPPH, pH 5.5, 30 minutes, room temperature
Method: Radical Eliminating Effect Test (DPPH)
Radical-eliminating ability of a sample drug is studied in terms of its reaction amount and reactivity with respect to α, α-diphenyl-β-picrylhydrazyl (DPPH) which is a stable radical.
Method of Uchiyama et al. (Japanese Journal of Pharmacology, vol. 88, pp. 678-683, 1968) was used. Namely, to a solution containing 20 mM acetic acid buffer (pH 5.5), 60% ethanol, and 10 μM of a sample compound, DPPH was added so as to yield a concentration of 0.1 mM. The resulting mixture was stirred and then its change in absorbance (ABS) at 517 nm was measured for 30 minutes at room temperature. Here, the sample compound was used as being dissolved in dimethylsulfoxide (DMSO). While the final concentration of DMSO was 10%, no influence upon the present system was observed.
The DPPH reducing ratio of the sample compound at the concentration of 10 μM was calculated by the following equation:
reducing ratio (%)={1-(ABS after 30 minutes/initial ABS)}×100

| Structure (SMILES) | Lipid peroxidation inhibitory ratio (rat brain homogenate) [%] | Brain edema inhibitory ratio [1] [%] | Brain infarction inhibitory ratio [2] [%] | DPPH reducing ratio [3] [%] | brain infarction inhibition activity, in words ([2]; rat, in vivo) |
| --- | --- | --- | --- | --- | --- |
| CC(C)Cc1cc(C(=O)Nc2ccc(N(C)C)cc2)ccc1OCc1ccccc1 [Example 9] | 28.1 | 19.2 | 39.9 | 25.5 |  |
| CC(C)Cc1cc(CC(=O)Nc2ccc(N(C)C)cc2)ccc1O [Example 16] | 14.4 |  |  | 21.0 |  |
| CC(C)=CCC/C(C)=C/COc1ccc(C(=O)Nc2ccc(N(C)C)cc2)cc1CC(C)C [Example 8] | 41.7 |  |  | 21.2 |  |
| CC(C)Cc1cccc(C(=O)Nc2ccc(N(C)C)cc2)c1O [Example 3] | 22.7 |  |  | 22.5 |  |
| CC(C)Cc1cccc(C(=O)Nc2ccc(N(C)C)cc2)c1OCc1ccccc1 [Example 10] | 28.2 |  | 18.7 | 11.5 | showed brain infarction inhibition tendency |
| COc1ccc(COc2ccc(C(=O)Nc3ccc(N(C)C)cc3)cc2CC(C)C)cc1 [Example 6] | 41.7 | 1.5 |  | 25.1 |  |
| CC(C)Cc1cc(C(=O)Nc2ccc(N(C)C)cc2)ccc1O [Example 1] | 40.1 | 2.0 | 53.0 | 22.9 |  |
| CC(C)Cc1cc(S(=O)(=O)Nc2ccc(N(C)C)cc2)ccc1OC(=O)c1ccccc1 [Example 13] | 13.4 |  |  | 58.9 |  |
| CC(C)Cc1cc(S(=O)(=O)Nc2ccc(N(C)C)cc2)ccc1O [Example 12] | 24.2 |  | 0.7 | 61.8 |  |
| COc1ccc(C(=O)Nc2ccc(N(C)C)cc2)cc1CC(C)C [Example 7] | 48.9 |  |  | 20.7 |  |
| CC(C)Cc1cc(CC(=O)Nc2ccc(N(C)C)cc2)ccc1OCc1ccccc1 [Example 15] | 24.8 |  | 2.8 | 12.8 |  |
| CC(C)Cc1nccc(C(=O)Nc2ccc(N(C)C)cc2)c1O [Example 5] | 29.5 | 38.1 | 19.0 | 16.1 |  |
| CC(C)Cc1cccc(CC(=O)Nc2ccc(N(C)C)cc2)c1O [Example 17] | 10.4 |  |  | 18.7 |  |
| CC(C)Cc1ccc(O)c(C(=O)Nc2ccc(N(C)C)cc2)c1 [Example 2] | 26.8 |  | 41.2 | 17.7 |  |
| CC(C)Cc1cc(C(=S)Nc2ccc(N(C)C)cc2)ccc1O [Example 14] | 33.9 |  |  | 18.3 |  |
| CC(C)Cc1ccc(C(=O)Nc2ccc(N(C)C)cc2)cc1O [Example 4] | 13.5 |  |  | 16.4 |  |

Reference: patent US6083987A, “Phenylenediamine derivative, radical scavenger, brain-infarction depressant, and brain-edema depressant” (Shiseido Co., Ltd., priority 1998, dated 2000)
